Source: patent US8030336B2, “Nicotinamide-based kinase inhibitors” (YM Biosciences Australia Pty Ltd, priority 2002, dated 2011)

Key:
Format in all cases: biochemical
abl = biological target: T1, abl (Homo sapiens, UniProt P00519); experiment: abl kinase assay (ELISA or Alphascreen); conditions: read-out: abl inhibition of enzyme activity
T1 sequence (P00519 242-493 limits assumed): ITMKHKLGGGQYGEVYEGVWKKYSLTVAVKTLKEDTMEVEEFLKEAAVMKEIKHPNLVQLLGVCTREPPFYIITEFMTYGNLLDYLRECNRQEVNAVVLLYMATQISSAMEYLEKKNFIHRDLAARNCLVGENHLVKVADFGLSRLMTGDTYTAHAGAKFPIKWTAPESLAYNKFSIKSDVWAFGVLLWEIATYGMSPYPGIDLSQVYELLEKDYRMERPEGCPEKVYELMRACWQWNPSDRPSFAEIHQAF
Summary of the method: (§1)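 PTK domain ~1.5 μg; 50 mM HEPES pH 7.5, 10 mM MgCl2, 150 mM NaCl; ATP 10 μM-1 mM; biotinylated peptide 5 μM final. Read-out: avidin-capture ELISA with PY20 or Alphascreen pTyr acceptor/streptavidin donor beads.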

human JAK3 = biological target: T2, human JAK3 (Homo sapiens, UniProt P52333); experiment: JAK3 kinase assay (ELISA or Alphascreen); conditions: read-out: Jak3 inhibition of enzyme activity
T2 construct: The kinase domain of human JAK3 was amplified from U937mRNA; His tag (from the pFastBac HTb vector) (N); made in house; host or cells: baculovirus; Sf9 for virus, High Five insect cells for production
T2 sequence (P52333 822-1111 limits assumed): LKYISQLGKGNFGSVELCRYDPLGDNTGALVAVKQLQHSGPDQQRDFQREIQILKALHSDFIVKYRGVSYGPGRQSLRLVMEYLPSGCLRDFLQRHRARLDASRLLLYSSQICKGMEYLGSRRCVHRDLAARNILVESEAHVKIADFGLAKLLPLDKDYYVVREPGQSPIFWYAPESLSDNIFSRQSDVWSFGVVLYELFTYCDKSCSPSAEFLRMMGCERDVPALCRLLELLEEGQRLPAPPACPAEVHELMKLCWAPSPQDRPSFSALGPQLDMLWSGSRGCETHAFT
Summary of the method: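 Read-out: anti-phosphotyrosine detection of a 5 μM biotin-peptide substrate, via PY20-peroxidase ELISA or Alphascreen beads. Enzyme was nickel-purified recombinant JAK3 kinase domain (~1.5 μg), with ATP at 10 μM-1 mM, pH 7.5 HEPES/MgCl2/NaCl.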

human JAK2 = biological target: T3, human JAK2 (Homo sapiens, UniProt O60674); experiment: JAK2 kinase assay (ELISA or Alphascreen); conditions: read-out: Jak2 inhibition of enzyme activity
T3 construct: The kinase domain of human JAK2 was amplified from U937mRNA; His tag (from the pFastBac HTc vector) (N); made in house; host or cells: baculovirus; Sf9 for virus, High Five insect cells for production
T3 sequence (O60674 849-1124 limits assumed): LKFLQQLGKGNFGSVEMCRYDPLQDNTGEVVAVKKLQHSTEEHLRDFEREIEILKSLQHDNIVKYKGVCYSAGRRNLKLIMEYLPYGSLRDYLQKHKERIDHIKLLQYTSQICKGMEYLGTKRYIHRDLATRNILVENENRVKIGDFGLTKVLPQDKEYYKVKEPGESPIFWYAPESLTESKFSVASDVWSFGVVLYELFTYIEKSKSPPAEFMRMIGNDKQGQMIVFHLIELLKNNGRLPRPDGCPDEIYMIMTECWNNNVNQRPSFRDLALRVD
Summary of the method: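 His-tagged human JAK2 kinase domain from baculovirus-infected insect cells, ~1.5 μg per assay, in 50 mM HEPES pH 7.5, 10 mM MgCl2, 150 mM NaCl, with 10 μM–1 mM ATP and 5 μM biotinylated peptide substrate. Phosphotyrosine detected by PY20 ELISA or AlphaScreen.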

fes = fes (Homo sapiens, UniProt P07332); experiment: fes kinase assay (ELISA or Alphascreen); conditions: read-out: fes inhibition of enzyme activity
fes, sequence (P07332 561-822 limits assumed, species assumed): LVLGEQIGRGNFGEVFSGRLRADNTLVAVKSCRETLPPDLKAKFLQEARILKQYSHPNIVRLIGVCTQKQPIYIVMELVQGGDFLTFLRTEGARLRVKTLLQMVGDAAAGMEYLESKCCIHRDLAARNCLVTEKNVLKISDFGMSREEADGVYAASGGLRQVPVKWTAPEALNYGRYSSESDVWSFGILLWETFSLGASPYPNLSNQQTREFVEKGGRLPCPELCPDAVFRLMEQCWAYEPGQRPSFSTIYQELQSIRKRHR
Summary of the method: as §1

fms = biological target: T4, fms (Homo sapiens, UniProt P07333); experiment: fms kinase assay (ELISA or Alphascreen); conditions: read-out: fms inhibition of enzyme activity
T4 sequence (P07333 582-910 limits assumed): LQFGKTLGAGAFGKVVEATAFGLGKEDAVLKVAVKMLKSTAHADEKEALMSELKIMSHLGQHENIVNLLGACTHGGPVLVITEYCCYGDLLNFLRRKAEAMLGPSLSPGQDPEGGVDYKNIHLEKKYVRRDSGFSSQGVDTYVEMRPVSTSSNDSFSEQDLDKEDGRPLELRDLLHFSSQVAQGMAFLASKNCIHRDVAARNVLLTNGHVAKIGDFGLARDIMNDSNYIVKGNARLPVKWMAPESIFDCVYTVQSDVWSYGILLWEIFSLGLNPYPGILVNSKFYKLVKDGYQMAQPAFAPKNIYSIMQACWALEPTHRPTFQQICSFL
Summary of the method: as §1

Zap70 = biological target: T5, Zap70 (Homo sapiens, UniProt P43403); experiment: Zap70 kinase assay (ELISA or Alphascreen); conditions: read-out: Zap70 inhibition of enzyme activity
T5 sequence (P43403 338-600 limits assumed): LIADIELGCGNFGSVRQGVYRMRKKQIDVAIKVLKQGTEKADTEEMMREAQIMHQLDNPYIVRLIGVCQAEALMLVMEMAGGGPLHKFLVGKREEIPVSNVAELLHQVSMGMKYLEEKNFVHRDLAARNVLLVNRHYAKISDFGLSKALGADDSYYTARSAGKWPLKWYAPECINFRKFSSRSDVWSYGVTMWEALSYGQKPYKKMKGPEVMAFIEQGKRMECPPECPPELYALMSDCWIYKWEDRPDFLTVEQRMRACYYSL
Summary of the method: as §1

hck = hck (Homo sapiens, UniProt P08631); experiment: hck kinase assay (ELISA or Alphascreen); conditions: read-out: hck inhibition of enzyme activity
hck, sequence (P08631 262-515 limits assumed, species assumed): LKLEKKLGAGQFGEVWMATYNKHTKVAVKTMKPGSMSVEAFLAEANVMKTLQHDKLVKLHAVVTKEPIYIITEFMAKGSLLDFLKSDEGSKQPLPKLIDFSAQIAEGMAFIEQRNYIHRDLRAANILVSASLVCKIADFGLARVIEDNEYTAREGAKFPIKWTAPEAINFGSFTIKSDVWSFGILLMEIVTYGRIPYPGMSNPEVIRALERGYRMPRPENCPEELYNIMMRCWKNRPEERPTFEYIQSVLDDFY
Summary of the method: as §1

Structure (SMILES) | inhibition at 10 µM (abl) [%] | inhibition at 10 µM (human JAK3) [%] | inhibition at 10 µM (human JAK2) [%] | inhibition at 10 µM (fes) [%] | inhibition at 10 µM (fms) [%] | inhibition at 10 µM (Zap70) [%] | inhibition at 10 µM (hck) [%]
COc1cc(-c2cncc(C(=O)Nc3ccccc3C)c2)cc(OC)c1OC | ≥ 50 | < 50 | < 50 | < 50 | ≥ 50 | < 50 | ≥ 50
O=C(Nc1ccccc1)c1cncc(-c2ccc(O)cc2)c1 | < 50 | < 50 | < 50 | – | < 50 | < 50 | < 50
Cc1ccc(C)c(NC(=O)c2cncc(-c3ccc(O)cc3)c2)c1 | < 50 | < 50 | < 50 | – | < 50 | < 50 | ≥ 50
Cc1cc(-c2cncc(C(=O)Nc3ccccc3)c2)cc(C)c1O | < 50 | < 50 | < 50 | – | < 50 | < 50 | ≥ 50
COc1ccc(CNC(=O)c2cncc(-c3cc(C)c(O)c(C)c3)c2)cc1 | < 50 | < 50 | – | < 50 | < 50 | < 50 | < 50
Cc1cc(F)ccc1NC(=O)c1cncc(-c2cc(C)c(O)c(C)c2)c1 | ≥ 50 | < 50 | < 50 | < 50 | ≥ 50 | – | ≥ 50
Cc1ccccc1NC(=O)c1cncc(-c2cc(C)c(O)c(C)c2)c1 | ≥ 50 | < 50 | < 50 | – | ≥ 50 | < 50 | ≥ 50
COc1cc(-c2cncc(C(=O)N[C@H](C)c3ccccc3)c2)c(Cl)c(OC)c1OC | < 50 | < 50 | < 50 | < 50 | < 50 | – | < 50
COc1cc(-c2cncc(C(=O)Nc3cc(C)ccc3C)c2)c(Cl)c(OC)c1OC | < 50 | < 50 | < 50 | < 50 | ≥ 50 | – | ≥ 50
COc1cc(-c2cncc(C(=O)NC(C)CCc3ccccc3)c2)c(Cl)c(OC)c1OC (centres unmarked) | < 50 | < 50 | < 50 | – | < 50 | < 50 | < 50
COc1cc(-c2cncc(C(=O)Nc3ccccc3C)c2)c(Cl)c(OC)c1OC | < 50 | < 50 | < 50 | < 50 | ≥ 50 | < 50 | ≥ 50
O=C(NCc1ccc(N2CCOCC2)cc1)c1cncc(-c2ccc3c(c2)OCO3)c1 | < 50 | < 50 | < 50 | < 50 | < 50 | – | < 50
CC(C)C(CO)NC(=O)c1cncc(-c2ccc3c(c2)OCO3)c1 (centres unmarked) | < 50 | < 50 | – | < 50 | < 50 | < 50 | < 50
O=C(NCc1cccc(F)c1)c1cncc(-c2cccs2)c1 | < 50 | < 50 | < 50 | ≥ 50 | < 50 | – | < 50
Cc1ccc(CNC(=O)c2cncc(-c3cccs3)c2)cc1 | < 50 | < 50 | – | ≥ 50 | < 50 | < 50 | < 50
C[C@@H](NC(=O)c1cncc(-c2cccnc2)c1)c1ccccc1 | < 50 | < 50 | < 50 | < 50 | < 50 | – | < 50
CC(C)C(CO)NC(=O)c1cncc(-c2cccnc2)c1 (centres unmarked) | < 50 | < 50 | – | < 50 | < 50 | < 50 | < 50
C[C@H](NC(=O)c1cncc(-c2ccc(F)cc2)c1)c1ccccc1 | < 50 | < 50 | < 50 | – | < 50 | < 50 | < 50
O=C(NCc1ccc(Cl)c(Cl)c1)c1cncc(-c2ccc(F)cc2)c1 | < 50 | < 50 | < 50 | < 50 | < 50 | – | < 50
O=C(Nc1ccccc1)c1cncc(-c2ccc(F)cc2)c1 | < 50 | < 50 | < 50 | < 50 | < 50 | – | < 50
O=C(NCc1ccco1)c1cncc(-c2ccc(F)cc2)c1 | < 50 | ≥ 50 | < 50 | – | < 50 | < 50 | < 50
COc1cc(NC(=O)c2cncc(-c3ccc(F)cc3)c2)cc(OC)c1OC | < 50 | < 50 | < 50 | – | < 50 | < 50 | < 50
COc1cccc(-c2cncc(C(=O)Nc3ccccc3)c2)c1 | < 50 | < 50 | < 50 | < 50 | < 50 | – | < 50
COc1cccc(-c2cncc(C(=O)Nc3ccc(F)cc3C)c2)c1 | < 50 | < 50 | < 50 | < 50 | < 50 | – | ≥ 50
COc1cccc(-c2cncc(C(=O)Nc3ccc(OC)cc3OC)c2)c1 | < 50 | < 50 | < 50 | < 50 | < 50 | – | < 50
COc1cc(-c2cncc(C(=O)Nc3cc(C)ccc3C)c2)ccc1O | ≥ 50 | < 50 | < 50 | – | ≥ 50 | < 50 | ≥ 50
COc1cc(-c2cncc(C(=O)Nc3cc(F)ccc3C)c2)ccc1O | ≥ 50 | < 50 | < 50 | < 50 | ≥ 50 | – | ≥ 50
CC(NC(=O)c1cncc(-c2cccnc2)c1)c1ccc(F)cc1 (centres unmarked) | < 50 | < 50 | – | < 50 | < 50 | < 50 | < 50
C[C@@H](NC(=O)c1cncc(-c2ccncc2)c1)c1ccccc1 | < 50 | < 50 | < 50 | – | < 50 | ≥ 50 | < 50
